The supplement of paper PMC11061612

Experiments:
Experiment in all cases: Bliss excess, mean over the matrix (fraction); higher = more synergy
[1] = tested on: RKO (Colorectal Carcinoma)
Outline: (§1)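 Cell lines grown in DMEM/F12 or RPMI with 10% FBS were plated in 1536-well plates and held 24 hours at 37°C, 5% CO2 before 72 hours of exposure to two-drug dose matrices, with DMSO typically at 0.2%. CellTiter-Glo 2.0 luminescence gave viability, which was converted to inhibition. Vehicle wells were set to 0 and blank wells to 1. Combination Emax is the second-highest inhibition in the matrix, and Bliss excess is the observed combination effect minus the expected EA + EB − EA·EB, where EA and EB are the single-agent effects.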

[2] = tested on: SU-DHL-6 (B-Cell Non-Hodgkin's Lymphoma)
Outline: as §1

[3] = tested on: NCI-H2795 (Mesothelioma)
Outline: as §1

[4] = tested on: OC-314 (Ovarian Carcinoma)
Outline: as §1

[5] = tested on: SW626 (Colorectal Carcinoma)
Outline: as §1

[6] = tested on: NCI-H28 (Mesothelioma)
Outline: as §1

[7] = tested on: MHH-PREB-1 (B-Cell Non-Hodgkin's Lymphoma)
Outline: as §1

[8] = tested on: NCI-H2461 (Mesothelioma)
Outline: as §1

[9] = tested on: SW1271 (Small Cell Lung Carcinoma)
Outline: as §1

[10] = tested on: K5 (Thyroid Gland Carcinoma)
Outline: as §1

[11] = tested on: SK-OV-3 (Ovarian Carcinoma)
Outline: as §1

[12] = tested on: CAL-54 (Kidney Carcinoma)
Outline: as §1

[13] = tested on: Mewo (Melanoma)
Outline: as §1

[14] = tested on: LU-139 (Small Cell Lung Carcinoma)
Outline: as §1

[15] = tested on: HCC-15 (Squamous Cell Lung Carcinoma)
Outline: as §1

[16] = tested on: HDLM-2 (Hodgkin's Lymphoma)
Outline: as §1

[17] = tested on: CAL-51 (Breast Carcinoma)
Outline: as §1

[18] = tested on: SW1116 (Colorectal Carcinoma)
Outline: as §1

[19] = tested on: 8305C (Thyroid Gland Carcinoma)
Outline: as §1

[20] = tested on: KYSE-410 (Esophageal Squamous Cell Carcinoma)
Outline: as §1

C[C@@H]1COCCN1c1cc(C2([S@](C)(=N)=O)CC2)nc(-c2ccnc3[nH]ccc23)n1 [AZD6738] + O=C(c1cc(Cc2n[nH]c(=O)c3ccccc23)ccc1F)N1CCN(C(=O)C2CC2)CC1 [Olaparib] (first compound max 10 µM, 7x7, partner max 10 µM)
Bliss excess [1]: 0.0101 | Bliss excess [2]: -0.0124 | Bliss excess [3]: 0.053 | Bliss excess [4]: 0.0247 | Bliss excess [5]: -0.0022 | Bliss excess [6]: 0.011 | Bliss excess [7]: -0.0405 | Bliss excess [8]: -0.0214 | Bliss excess [9]: -0.016 | Bliss excess [10]: -0.0175 | Bliss excess [11]: -0.0222 | Bliss excess [12]: 0.045 | Bliss excess [13]: -0.0368 | Bliss excess [14]: 0.0115 | Bliss excess [15]: 0.0025 | Bliss excess [16]: -0.0437 | Bliss excess [17]: 0.0407 | Bliss excess [18]: -0.0228 | Bliss excess [19]: -0.0594 | Bliss excess [20]: -0.0219

CC1(C)CCC(CN2CCN(c3ccc(C(=O)NS(=O)(=O)c4ccc(NCC5CCOCC5)c([N+](=O)[O-])c4)c(Oc4cnc5[nH]ccc5c4)c3)CC2)=C(c2ccc(Cl)cc2)C1 [Venetoclax] + C=CCn1c(=O)c2cnc(Nc3ccc(N4CCN(C)CC4)cc3)nc2n1-c1cccc(C(C)(C)O)n1 [AZD1775] (first compound max 1 µM, partner max 1 µM)
Bliss excess [1]: 0.0487 | Bliss excess [2]: 0.0009 | Bliss excess [3]: 0.0657 | Bliss excess [4]: 0.1 | Bliss excess [5]: -0.0676 | Bliss excess [6]: -0.048 | Bliss excess [7]: -0.0328 | Bliss excess [8]: 0.0234 | Bliss excess [9]: 0.0381 | Bliss excess [10]: -0.0279 | Bliss excess [11]: -0.026 | Bliss excess [12]: -0.0099 | Bliss excess [13]: -0.0079 | Bliss excess [14]: 0.0207 | Bliss excess [15]: -0.0355 | Bliss excess [16]: 0.0749 | Bliss excess [17]: -0.0507 | Bliss excess [18]: -0.0214 | Bliss excess [19]: -0.0431 | Bliss excess [20]: -0.0451

COc1nnc2ccc(N3CCC(c4ccc(OCCN5CCN(C)C(=O)[C@H]5C)cc4)CC3)nn12 [AZD5153] + Cc1c2c(nn1C)CSCc1cc(n(C)n1)CSc1cc(c3ccccc3c1)OCCCc1c(C(=O)O)n(C)c3c-2c(Cl)ccc13 [AZD5991] (first compound max 1 µM, 7x7, partner max 1 µM)
Bliss excess [1]: -0.0293 | Bliss excess [2]: -0.0326 | Bliss excess [3]: 0.0103 | Bliss excess [4]: -0.0625 | Bliss excess [5]: -0.0374 | Bliss excess [6]: -0.0976 | Bliss excess [7]: -0.0418 | Bliss excess [8]: -0.0189 | Bliss excess [9]: -0.0242 | Bliss excess [10]: -0.0635 | Bliss excess [11]: -0.048 | Bliss excess [12]: -0.0396 | Bliss excess [13]: -0.0453 | Bliss excess [14]: -0.0069 | Bliss excess [15]: -0.0105 | Bliss excess [16]: -0.0401 | Bliss excess [17]: 0.0291 | Bliss excess [18]: 0.0091 | Bliss excess [19]: -0.0922 | Bliss excess [20]: 0.0001

CN(CCO)CC[C@H](CSc1ccccc1)Nc1ccc(S(=O)(=O)NC(=O)c2ccc(N3CCC([C@@H](O)c4ccccc4-c4ccc(Cl)cc4)CC3)cc2)cc1S(=O)(=O)C(F)(F)F [AZD4320] + C=CCn1c(=O)c2cnc(Nc3ccc(N4CCN(C)CC4)cc3)nc2n1-c1cccc(C(C)(C)O)n1 [AZD1775] (first compound max 1 µM, partner max 1 µM)
Bliss excess [1]: -0.0003 | Bliss excess [2]: 0.14 | Bliss excess [3]: -0.0225 | Bliss excess [4]: -0.0187 | Bliss excess [5]: -0.0124 | Bliss excess [6]: 0.0115 | Bliss excess [7]: -0.0454 | Bliss excess [8]: 0.016 | Bliss excess [9]: 0.0152 | Bliss excess [10]: 0.0069 | Bliss excess [11]: 0.0069 | Bliss excess [12]: 0.146 | Bliss excess [13]: 0.0306 | Bliss excess [14]: 0.0145 | Bliss excess [15]: 0.0202 | Bliss excess [16]: 0.106 | Bliss excess [17]: -0.0122 | Bliss excess [18]: 0.0003 | Bliss excess [19]: -0.0178 | Bliss excess [20]: -0.0313

CC1(C)CCC(CN2CCN(c3ccc(C(=O)NS(=O)(=O)c4ccc(NCC5CCOCC5)c([N+](=O)[O-])c4)c(Oc4cnc5[nH]ccc5c4)c3)CC2)=C(c2ccc(Cl)cc2)C1 [Venetoclax] + COc1cc(Nc2ncc3c(n2)-c2ccc(Cl)cc2C(c2c(F)cccc2OC)=NC3)ccc1C(=O)O [Alisertib] (first compound max 1 µM, 7x7, partner max 10 µM)
Bliss excess [1]: -0.0062 | Bliss excess [2]: 0.121 | Bliss excess [3]: -0.0656 | Bliss excess [4]: 0.0244 | Bliss excess [5]: -0.0167 | Bliss excess [6]: -0.0704 | Bliss excess [7]: -0.03 | Bliss excess [8]: -0.0208 | Bliss excess [9]: -0.0222 | Bliss excess [10]: -0.0455 | Bliss excess [11]: -0.076 | Bliss excess [12]: -0.0251 | Bliss excess [13]: -0.0163 | Bliss excess [14]: 0.149 | Bliss excess [15]: -0.0104 | Bliss excess [16]: 0.0993 | Bliss excess [17]: 0.0319 | Bliss excess [18]: 0.0127 | Bliss excess [19]: -0.0592 | Bliss excess [20]: -0.0651

COc1cc2c(cc1OCCCCCOc1cc3c(cc1OC)C(=O)N1C=C(C)C[C@H]1C=N3)N=C[C@@H]1CC(C)=CN1C2=O [SG3199] + O=C(c1cc(Cc2n[nH]c(=O)c3ccccc23)ccc1F)N1CCN(C(=O)C2CC2)CC1 [Olaparib] (first compound max 0.001 µM, 7x7, partner max 10 µM)
Bliss excess [1]: -0.0131 | Bliss excess [2]: 0.0075 | Bliss excess [3]: -0.0524 | Bliss excess [4]: -0.036 | Bliss excess [5]: -0.0362 | Bliss excess [6]: -0.0556 | Bliss excess [7]: -0.0025 | Bliss excess [8]: -0.0652 | Bliss excess [9]: -0.0276 | Bliss excess [10]: -0.0105 | Bliss excess [11]: -0.0477 | Bliss excess [12]: -0.0488 | Bliss excess [13]: -0.0489 | Bliss excess [14]: -0.0196 | Bliss excess [15]: -0.0166 | Bliss excess [16]: -0.0444 | Bliss excess [17]: -0.0299 | Bliss excess [18]: -0.0356 | Bliss excess [19]: -0.0854 | Bliss excess [20]: -0.0334

Cc1c2c(nn1C)CSCc1cc(n(C)n1)CSc1cc(c3ccccc3c1)OCCCc1c(C(=O)O)n(C)c3c-2c(Cl)ccc13 [AZD5991] + Cn1cnc2c(F)c(Nc3ccc(Br)cc3Cl)c(C(=O)NOCCO)cc21 [Selumetinib] (first compound max 1 µM, 7x7, partner max 3 µM)
Bliss excess [1]: 0.0143 | Bliss excess [2]: 0.0071 | Bliss excess [3]: 0.0278 | Bliss excess [4]: -0.0313 | Bliss excess [5]: 0.0233 | Bliss excess [6]: -0.026 | Bliss excess [7]: 0.0113 | Bliss excess [8]: -0.0131 | Bliss excess [9]: -0.0287 | Bliss excess [10]: -0.0216 | Bliss excess [11]: -0.0597 | Bliss excess [12]: 0.0203 | Bliss excess [13]: -0.0417 | Bliss excess [14]: -0.0283 | Bliss excess [15]: 0.0217 | Bliss excess [16]: -0.0477 | Bliss excess [17]: 0.0634 | Bliss excess [18]: -0.032 | Bliss excess [19]: -0.0511 | Bliss excess [20]: -0.0058
